Source: patent US11242334B2, “Heterocyclic compounds as kinase inhibitors, compositions comprising the heterocyclic compound, and methods of use thereof” (JS INNOPHARM (SHANGHAI) LTD, priority 2017, dated 2022)

Legend:
Colo205 cell line = experiment: Colo205 cell proliferation assay (MTT assay, WST-8 readout); assay type: cell-based; details: Homo sapiens; IC50 values of growth inhibition in Colo 205 cells; 72 hours
Description: Compounds disclosed herein were tested for the inhibition of ERK2 by a Colo205 cell proliferation assay commonly known as MTT assay. In this assay, a complete media was prepared by adding 10% fetal bovine serum to RPMI-1640 medium (Life technology). Colon cancer cells (Colo205 cell line) were added to each of 88 wells of a 96 well plate at a seeding density of 5,000 cells/well/90 μL. The cells were allowed to attach to the plate by incubating at 37° C. for 24 hours. The compound was dissolved in DMSO (SIGMA). A solution of test compound was prepared in complete media by serial dilution to obtain the following concentrations: 500 μM, 150 μM, 50 μM, 15 μM, 5 μM, 1.5 μM, 0.5 μM, 0.15 μM and 0.05 μM. The test compound solution (10 μL) was added to each of 80 cell-containing wells. The final concentrations of the compound were following: 50 μM, 15 μM, 5 μM, 1.5 μM, 0.5 μM, 0.15 μM, 0.05 μM, 0.015 μM and 0.005 μM. The final concentration of DMSO is 0.5%. To the 8 remaining cell-containing wells, only complete media (containing 0.5% DMSO) was added to form a control group in order to measure maximal proliferation. To the remaining 8 empty wells, complete media was added to for a vehicle control group in order to measure background. The plates were incubated at 37° C. for 72 hours. 10 μL WST-8 solution (DOJINDO, Cell Counting KIT-8) was added to each well. The plates were further incubated at 37° C. for 2 hours, and then read for the absorbance using a microplate reader at 450 nm.
The IC50 values of growth inhibition in Colo 205 cells for Compounds disclosed are listed in Table 3, A′: ≤0.5 μM; B′: >0.5 μM and ≤1 μM; C′: >1.0 μM and ≤5 uM; D′: >5 μM.

human ERK2 = molecular target: T1, human ERK2 (Homo sapiens, UniProt P28482); experiment: LanthaScreen TR-FRET enzymatic assay, ERK2; details: IC50 values of ERK2 biochemical activity; 5 μM ATP, 400 nM ATF2-GFP substrate
T1 construct: recombinantly expressed as GST-tagged full-length protein purified from E. coli; GST; purchased Invitrogen PV3311; host or cells: E. coli
Description: Compounds were tested in a LanthaScreen™ time-resolved fluorescence energy transfer (TR-FRET) enzymatic assay from Invitrogen. The assay used human ERK2 (Mitogen Activated Kinase 1, Invitrogen, Cat. PV3311) recombinantly expressed as GST-tagged full-length protein purified from E. coli and activated in vitro with MAP2K1. The substrate was a recombinant truncated version (residues 19-96) of ATF2 fused with Green Fluorescent Protein (Invitrogen, Cat. PV4445). Test compounds were prepared and diluted in DMSO in 3-fold serial dilutions to 100× of the final testing concentrations. The compounds were then further diluted to 4× by the kinase reaction buffer (Invitrogen, Cat. PV3189). The enzymatic reaction for compound testing was performed in a white 384-well polypropylene plate (Packard, Cat. 6005214) with a total reaction volume of 10 μl containing 20 ng/ml ERK2, 400 nM substrate, and 5 μM ATP that is around its Km. The assay started with loading 2.5 μl of ERK2 diluted in kinase reaction buffer to wells, followed by addition of equal volume of 4× compounds for 15-min incubation at the room temperature for pre-treatment. The enzymatic reaction was initiated by addition of 5 μl of mixture of the substrate and ATP prepared in kinase reaction buffer. After one hour reaction, 10 μl mixture of EDTA (final 10 mM) and terbium-labeled anti-pATF2 (pThr71) antibody (final 2 nM) (Invitrogen, Cat. PV4451) prepared in TR-FRET antibody dilution buffer (Invitrogen, Cat. PV3574) was added to stop the enzymatic reaction and produce TR-FRET signals. After 30 minutes of incubation at room temperature, the plate was read in Tecan Infinite F200 Pro with the following settings: Excitation 340 nm (30)/Emission1 495 nm (10)/Emission2 520 nm (25). The TR-FRET values were dimensionless numbers that were calculated as the ratio of the acceptor ([…]) signal to the donor (Terbium) signal. Percent of control was calculated as the percentage of compound-treated vs 1% DMSO vehicle-treated. The dose-response curves were generated and the ICsos were calculated by nonlinear sigmoid curve fitting using GraphPad Prism.
The IC50 values of ERK2 biochemical activity for the examples disclosed herein are listed in Table 3, A: ≤10 nM; B: >10 nM and ≤50 nM; C: >50 nM and ≤100 nM; D.>100 nM.

T1 sequence (P28482 whole entry): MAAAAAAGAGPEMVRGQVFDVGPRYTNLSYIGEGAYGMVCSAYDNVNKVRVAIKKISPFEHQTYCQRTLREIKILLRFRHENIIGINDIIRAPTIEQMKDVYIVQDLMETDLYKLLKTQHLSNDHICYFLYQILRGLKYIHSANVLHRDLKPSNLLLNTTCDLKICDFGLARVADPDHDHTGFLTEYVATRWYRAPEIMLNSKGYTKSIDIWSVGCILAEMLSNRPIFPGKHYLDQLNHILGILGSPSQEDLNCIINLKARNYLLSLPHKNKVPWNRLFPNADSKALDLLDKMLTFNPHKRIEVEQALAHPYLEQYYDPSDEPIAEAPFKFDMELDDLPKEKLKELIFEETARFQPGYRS

| Compound | IC50 (Colo205 cell line) [nM] | IC50 (human ERK2) [nM] |
| --- | --- | --- |
| O=c1cc(-c2ccc3[nH]nc(C4CCOCC4)c3c2)ccn1[C@H](CO)c1cccc(Cl)c1 [Example 2, (S)-1-(1-(3-chlorophenyl)-2-hydroxyethyl)-4-(3-(tetrahydro-2H-pyran-4-yl)-1H-indazol-5-yl)pyridin-2(1H)-one] | 500 to 1000 | < 10 |
| Cc1n[nH]c2ccc(-c3ccn([C@H](CO)c4cccc(Cl)c4)c(=O)c3)cc12 [Example 3, (S)-1-(1-(3-chlorophenyl)-2-hydroxyethyl)-4-(3-methyl-1H-indazol-5-yl)pyridin-2(1H)-one] | 1000 to 5000 | 10 to 50 |
| CNc1n[nH]c2ccc(-c3ccn([C@H](CO)c4cccc(Cl)c4)c(=O)c3)cc12 [Example 5, (S)-1-(1-(3-chlorophenyl)-2-hydroxyethyl)-4-(3-(methyl-amino)-1H-indazol-5-yl)pyridin-2(1H)-one] | 1000 to 5000 | 10 to 50 |
| Cc1cc(-c2n[nH]c3ccc(-c4ccn(Cc5cc(F)cc(Br)c5)c(=O)c4)cc23)ccn1 [Example 8, 1-(3-bromo-5-fluorobenzyl)-4-(3-(2-methylpyridin-4-yl)-1H-indazol-5-yl)pyridin-2(1H)-one] | 500 to 1000 | < 10 |
| Cc1cc(-c2n[nH]c3ccc(-c4ccn([C@H](CO)c5cccc(Cl)c5)c(=O)c4)nc23)ccn1 [Example 9, (S)-1-(1-(3-chlorophenyl)-2-hydroxyethyl)-4-(3-(2-methyl-pyridin-4-yl)-1H-pyrazolo[4,3-b]pyridin-5-yl)pyridin-2(1H)-one] | 500 to 1000 | < 10 |
| CC(C)Oc1cc(-c2n[nH]c3ccc(-c4ccn(Cc5cc(F)cc(Br)c5)c(=O)c4)cc23)ccn1 [Example 10, 1-(3-bromo-5-fluorobenzyl)-4-(3-(2-isopropoxypyridin-4-yl)-1H-indazol-5-yl)pyridin-2(1H)-one] | > 5000 | 10 to 50 |
| Nc1n[nH]c2ccc(-c3ccn([C@H](CO)c4cccc(Cl)c4)c(=O)c3)cc12 [Example 11, (S)-4-(3-amino-1H-indazol-5-yl)-1-(1-(3-chlorophenyl)-2-hydroxyethyl)pyridin-2(1H)-one] | > 5000 | 10 to 50 |
| Cn1nccc1Nc1n[nH]c2ccc(-c3ccn([C@H](CO)c4cccc(Cl)c4)c(=O)c3)cc12 [Example 12, (S)-1-(1-(3-chlorophenyl)-2-hydroxyethyl)-4-(3-((1-methyl-1H-pyrazol-5-yl)amino)-1H-indazol-5-yl)pyridin-2(1H)-one] | 1000 to 5000 | 10 to 50 |
| O=c1cc(-c2ccc3[nH]ncc3c2)ccn1[C@H](CO)c1cccc(Cl)c1 [Example 22, (S)-1-(1-(3-chlorophenyl)-2-hydroxyethyl)-4-(1H-indazol-5-yl)pyridin-2(1H)-one] | > 5000 | 10 to 50 |
| CCc1n[nH]c2ccc(-c3ccn([C@H](CO)c4cccc(Cl)c4)c(=O)c3)cc12 [Example 23, (S)-1-(1-(3-chlorophenyl)-2-hydroxyethyl)-4-(3-ethyl-1H-indazol-5-yl)pyridin-2(1H)-one] | 1000 to 5000 | 50 to 100 |

Results, then the compound that gave them:

| IC50 (Colo205 cell line) [nM] | IC50 (human ERK2) [nM] | Compound |
| --- | --- | --- |
| 500 to 1000 | < 10 | Cc1cc(-c2n[nH]c3ncc(-c4ccn([C@H](CO)c5cccc(Cl)c5)c(=O)c4)cc23)ccn1 [Example 4, (S)-1-(1-(3-chlorophenyl)-2-hydroxyethyl)-4-(3-(2-methylpyridin-4-yl)-1H-pyrazolo[3,4-b]pyridin-5-yl)pyridin-2(1H)-one] |
| ≤ 500 | < 10 | Cc1cc(-c2n[nH]c3ccc(-c4ccn([C@H](CO)c5cccc(Br)c5)c(=O)c4)cc23)ccn1 [Example 6, (S)-1-(1-(3-bromophenyl)-2-hydroxyethyl)-4-(3-(2-methyl-pyridin-4-yl)-1H-indazol-5-yl)pyridin-2(1H)-one] |
| 1000 to 5000 | 10 to 50 | Cn1nccc1-c1n[nH]c2ccc(-c3ccn([C@H](CO)c4cccc(Cl)c4)c(=O)c3)cc12 [Example 7, (S)-1-(1-(3-chlorophenyl)-2-hydroxyethyl)-4-(3-(1-methyl-1H-pyrazol-5-yl)-1H-indazol-5-yl)pyridin-2(1H)-one] |
| 500 to 1000 | < 10 | Cc1cc(-c2n[nH]c3ccc(-c4ccn([C@H](CO)c5cccc(Cl)c5)c(=O)c4)c(F)c23)ccn1 [Example 13, (S)-1-(1-(3-chlorophenyl)-2-hydroxyethyl)-4-(4-fluoro-3-(2-methylpyridin-4-yl)-1H-indazol-5-yl)pyridin-2(1H)-one] |
| 1000 to 5000 | 10 to 50 | Cc1cc(-c2n[nH]c3cc(F)c(-c4ccn([C@H](CO)c5cccc(Cl)c5)c(=O)c4)cc23)ccn1 [Example 14, (S)-1-(1-(3-chlorophenyl)-2-hydroxyethyl)-4-(6-fluoro-3-(2-methylpyridin-4-yl)-1H-indazol-5-yl)pyridin-2(1H)-one] |
| ≤ 500 | < 10 | Cc1cc(-c2n[nH]c3ccc(-c4ccn([C@H](CO)c5ccc(Cl)c(F)c5)c(=O)c4)cc23)ccn1 [Example 15, (S)-1-(1-(4-chloro-3-fluorophenyl)-2-hydroxyethyl)-4-(3-(2-methylpyridin-4-yl)-1H-indazol-5-yl)pyridin-2(1H)-one] |
| 500 to 1000 | < 10 | Cc1nn(C)cc1-c1n[nH]c2ccc(-c3ccn([C@H](CO)c4cccc(Cl)c4)c(=O)c3)cc12 [Example 16, (S)-1-(1-(3-chlorophenyl)-2-hydroxyethyl)-4-(3-(1,3-dimethyl-1H-pyrazol-4-yl)-1H-indazol-5-yl)pyridin-2(1H)-one] |
| 500 to 1000 | < 10 | CC(C)Oc1ccc(-c2n[nH]c3ccc(-c4ccn([C@H](CO)c5cccc(Cl)c5)c(=O)c4)cc23)cn1 [Example 17, (S)-1-(1-(3-chlorophenyl)-2-hydroxyethyl)-4-(3-(6-isopropoxypyridin-3-yl)-1H-indazol-5-yl)pyridin-2(1H)-one] |
| ≤ 500 | < 10 | Cn1cc(-c2n[nH]c3ccc(-c4ccn([C@H](CO)c5cccc(Cl)c5)c(=O)c4)cc23)cn1 [Example 18, (S)-1-(1-(3-chlorophenyl)-2-hydroxyethyl)-4-(3-(1-methyl-1H-pyrazol-4-yl)-1H-indazol-5-yl)pyridin-2(1H)-one] |
| 1000 to 5000 | < 10 | CC(C)Oc1cc(-c2n[nH]c3ccc(-c4ccn([C@H](CO)c5cccc(Cl)c5)c(=O)c4)cc23)ccn1 [Example 19, (S)-1-(1-(3-chlorophenyl)-2-hydroxyethyl)-4-(3-(2-isopropoxypyridin-4-yl)-1H-indazol-5-yl)pyridin-2(1H)-one] |
| 1000 to 5000 | 10 to 50 | CC(C)(O)c1ccc(-c2n[nH]c3ccc(-c4ccn([C@H](CO)c5ccc(F)c(Cl)c5)c(=O)c4)cc23)cn1 [Example 20, (S)-1-(1-(3-chloro-4-fluorophenyl)-2-hydroxyethyl)-4-(3-(6-(2-hydroxypropan-2-yl)pyridin-3-yl)-1H-indazol-5-yl)pyridin-2(1H)-one] |
| 1000 to 5000 | < 10 | CC(C)(O)c1cc(-c2n[nH]c3ccc(-c4ccn([C@H](CO)c5ccc(F)c(Cl)c5)c(=O)c4)cc23)ccn1 [Example 21] |
